Assay results from ChEMBL document CHEMBL6071121, “Synthetic approaches and clinical application of small-molecule inhibitors of sodium-dependent glucose transporters 2 for the treatment of type 2 diabetes mellitus” (Eur J Med Chem, 2024).

What was measured:
[1] = biological target: T1, Sodium/glucose cotransporter 2 (Homo sapiens, UniProt P31639); assay: Inhibition of human SGLT2
T1 sequence (P31639 whole entry): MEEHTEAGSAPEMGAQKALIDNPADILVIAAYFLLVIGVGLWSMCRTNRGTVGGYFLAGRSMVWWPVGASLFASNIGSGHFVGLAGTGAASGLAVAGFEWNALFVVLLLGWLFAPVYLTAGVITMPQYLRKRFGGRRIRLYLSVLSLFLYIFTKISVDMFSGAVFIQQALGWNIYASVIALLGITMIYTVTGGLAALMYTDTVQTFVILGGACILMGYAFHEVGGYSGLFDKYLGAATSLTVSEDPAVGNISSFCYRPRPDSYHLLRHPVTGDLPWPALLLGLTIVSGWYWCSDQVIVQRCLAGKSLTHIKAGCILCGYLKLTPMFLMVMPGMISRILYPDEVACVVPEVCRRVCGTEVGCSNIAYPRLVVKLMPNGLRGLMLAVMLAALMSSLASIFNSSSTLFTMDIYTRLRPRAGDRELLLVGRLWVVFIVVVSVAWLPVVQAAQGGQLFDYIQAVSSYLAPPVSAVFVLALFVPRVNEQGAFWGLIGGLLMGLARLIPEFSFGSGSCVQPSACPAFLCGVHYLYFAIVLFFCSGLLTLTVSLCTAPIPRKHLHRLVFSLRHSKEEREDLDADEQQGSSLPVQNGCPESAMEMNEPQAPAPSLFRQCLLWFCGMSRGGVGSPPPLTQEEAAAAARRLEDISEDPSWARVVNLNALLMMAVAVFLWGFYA

[2] = biological target: T2, Sodium/glucose cotransporter 2 (Rattus norvegicus, UniProt P53792); assay: Inhibition of rat SGLT2
T2 sequence (P53792 whole entry): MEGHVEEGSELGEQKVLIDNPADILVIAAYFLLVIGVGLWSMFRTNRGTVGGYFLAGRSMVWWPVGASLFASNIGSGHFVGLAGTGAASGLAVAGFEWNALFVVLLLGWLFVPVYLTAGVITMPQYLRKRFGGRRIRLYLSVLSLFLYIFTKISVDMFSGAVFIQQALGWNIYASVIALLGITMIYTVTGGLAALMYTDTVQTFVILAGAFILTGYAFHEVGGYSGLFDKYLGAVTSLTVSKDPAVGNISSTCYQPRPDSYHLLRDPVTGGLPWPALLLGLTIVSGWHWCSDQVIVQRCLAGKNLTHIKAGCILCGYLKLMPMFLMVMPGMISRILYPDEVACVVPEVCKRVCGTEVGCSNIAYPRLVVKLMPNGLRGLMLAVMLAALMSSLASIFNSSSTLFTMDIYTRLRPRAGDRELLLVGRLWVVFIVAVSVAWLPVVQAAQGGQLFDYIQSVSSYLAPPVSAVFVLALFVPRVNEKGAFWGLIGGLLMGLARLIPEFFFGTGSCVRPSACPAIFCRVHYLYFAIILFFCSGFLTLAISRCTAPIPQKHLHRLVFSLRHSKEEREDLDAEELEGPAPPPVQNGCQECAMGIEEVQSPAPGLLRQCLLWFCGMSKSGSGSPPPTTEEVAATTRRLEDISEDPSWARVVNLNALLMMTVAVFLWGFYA

[3] = biological target: T3, Sodium/glucose cotransporter 1 (Homo sapiens, UniProt P13866); assay: Inhibition of human SGLT1 expressed in HEK293 cells using 14C-AMG as substrate preincubated for 15 mins followed by substrate addition measured after 2 hrs by liquid scintillation counter analysis; format: cell-based
T3 sequence (P13866 whole entry): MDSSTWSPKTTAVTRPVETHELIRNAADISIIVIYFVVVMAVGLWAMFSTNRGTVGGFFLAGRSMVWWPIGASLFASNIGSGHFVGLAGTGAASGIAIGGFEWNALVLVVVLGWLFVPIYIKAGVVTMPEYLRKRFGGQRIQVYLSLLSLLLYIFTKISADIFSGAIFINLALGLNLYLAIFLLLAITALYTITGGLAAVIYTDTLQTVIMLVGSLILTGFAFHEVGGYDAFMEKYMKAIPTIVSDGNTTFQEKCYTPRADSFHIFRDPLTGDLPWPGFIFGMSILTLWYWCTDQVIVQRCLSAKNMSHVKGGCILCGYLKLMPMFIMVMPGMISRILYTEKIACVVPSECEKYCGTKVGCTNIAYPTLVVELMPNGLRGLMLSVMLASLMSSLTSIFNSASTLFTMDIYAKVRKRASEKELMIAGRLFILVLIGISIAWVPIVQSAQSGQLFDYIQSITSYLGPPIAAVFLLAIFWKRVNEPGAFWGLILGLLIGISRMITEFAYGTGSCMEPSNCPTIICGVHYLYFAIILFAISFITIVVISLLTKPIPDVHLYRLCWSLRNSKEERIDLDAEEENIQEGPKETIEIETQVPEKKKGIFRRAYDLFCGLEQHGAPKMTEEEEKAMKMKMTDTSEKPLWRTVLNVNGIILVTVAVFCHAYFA

[4] = biological target: T1, Sodium/glucose cotransporter 2; assay: Inhibition of human SGLT2 expressed in HEK293 cells using 14C-AMG as substrate preincubated for 15 mins followed by substrate addition measured after 2 hrs by liquid scintillation counter analysis; format: cell-based
[5] = biological target: T4, Sodium/glucose cotransporter 2 (Mus musculus) (UniProt Q923I7); assay: In vivo inhibition of SGLT2-mediated increase in blood glucose level in mouse administered orally; format: functional, organism-based; conditions: route po
T4 sequence (whole entry): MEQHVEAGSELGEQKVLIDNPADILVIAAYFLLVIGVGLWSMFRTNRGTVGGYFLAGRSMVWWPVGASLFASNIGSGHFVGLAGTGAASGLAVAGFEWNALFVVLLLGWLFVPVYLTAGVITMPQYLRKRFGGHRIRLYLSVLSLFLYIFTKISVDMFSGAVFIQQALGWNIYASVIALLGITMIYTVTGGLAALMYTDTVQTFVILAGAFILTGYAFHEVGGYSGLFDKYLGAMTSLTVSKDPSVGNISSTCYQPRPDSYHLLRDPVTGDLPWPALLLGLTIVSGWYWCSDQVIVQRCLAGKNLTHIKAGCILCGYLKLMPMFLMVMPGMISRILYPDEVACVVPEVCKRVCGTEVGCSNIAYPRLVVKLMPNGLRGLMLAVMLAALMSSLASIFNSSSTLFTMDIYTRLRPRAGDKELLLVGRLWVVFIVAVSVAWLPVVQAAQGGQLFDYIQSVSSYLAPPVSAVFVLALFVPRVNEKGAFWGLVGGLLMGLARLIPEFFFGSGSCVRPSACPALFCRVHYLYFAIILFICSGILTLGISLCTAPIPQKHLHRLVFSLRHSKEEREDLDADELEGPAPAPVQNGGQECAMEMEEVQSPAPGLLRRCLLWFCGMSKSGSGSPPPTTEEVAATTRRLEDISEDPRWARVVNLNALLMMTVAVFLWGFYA

[6] = biological target: T4, Sodium/glucose cotransporter 2 (Mus musculus); assay: In vivo inhibition of SGLT2-mediated increase in blood glucose level in mouse administered intraperitoneally; format: functional, organism-based; conditions: route ip
[7] = biological target: T3, Sodium/glucose cotransporter 1; assay: Inhibition of SGLT1 (unknown origin)
[8] = biological target: T4, Sodium/glucose cotransporter 2 (Mus musculus); assay: In vivo inhibition of SGLT2-mediated reduction in urinary glucose excretion in mouse administered orally; format: functional, organism-based; conditions: route po
[9] = biological target: T5, Sodium/glucose cotransporter 2 (Rattus norvegicus) (UniProt P53792); assay: In vivo inhibition of SGLT2-mediated reduction in urinary glucose excretion in rat administered orally; format: functional, organism-based; conditions: route po
T5 sequence (whole entry): T2 sequence (P53792 whole entry)

[10] = biological target: T6, Sodium/glucose cotransporter 2 (Mus musculus, UniProt Q923I7); assay: Inhibition of mouse SGLT2
T6 sequence (Q923I7 whole entry): T4 sequence (whole entry)

Question: For CCOC(=O)OC[C@H]1O[C@@H](Oc2nn(C(C)C)c(C)c2Cc2ccc(OC(C)C)cc2)[C@H](O)[C@@H](O)[C@@H]1O [REMOGLIFLOZIN ETABONATE], which Ki [1] is on record?
Answer: Its Ki is 1950 nM.

Question: What about the Ki [2] of the same molecule?
Answer: Its Ki is 2140 nM.

Question: Which results are given for CCOc1ccc(Cc2cc([C@@]34OC[C@@](CO)(O3)[C@@H](O)[C@H](O)[C@H]4O)ccc2Cl)cc1F [HENAGLIFLOZIN]?
Answer: IC50 [3]: 4320 nM; IC50 [4]: 2.38 nM

Question: Which results are given for COc1ccc(Cc2sccc2O[C@@H]2O[C@H](CO)[C@@H](O)[C@H](O)[C@H]2O)cc1 [ATIGLIFLOZIN]?
Answer: ID50 [5]: 26.1 mg/kg; ID50 [6]: 13.2 mg/kg; IC50 [7]: > 10000 nM; ID30 [8]: 79 mg/kg; ID30 [9]: 39.8 mg/kg

Question: What does the source list for CCc1ccc(Cc2ccc3c(c2)[C@]2(OC3)O[C@H](CO)[C@@H](O)[C@H](O)[C@H]2O)cc1 [TOFOGLIFLOZIN]?
Answer: Ki [10]: 6.4 nM; Ki [1]: 2.9 nM; Ki [2]: 14.9 nM
